Assay results published in patent publication EP0643558B1, “SANITIZING COMPOSITIONS” (ECOLAB INC., priority 1991, dated 1992).

What was measured:
Assay type in all cases: cell-based
[1] = system: Staphylococcus aureus; assay: A.O.A.C. Sanitizing Test (Germicidal and Detergent Sanitizing Action of Disinfectants, para. 960.09); conditions: use solutions, 0.1 wt-% fatty acid + 0.1 wt-% lactic acid (88% w/v) in distilled water, solution pH 2.96-2.97
Text: (§1) A sanitizer is an agent that reduces the number of bacterial contaminants to safe levels as judged by public health requirements. Practically, a sanitizer must result in 99.999% reduction (5 log order reduction) for given organisms as defined by Germicidal and Detergent Sanitizing Action of Disinfectants, Official Methods of Analysis of the Association of Official Analytical Chemists, paragraph 960.09 and applicable sections, 15th Edition, 1990 (EPA Guideline 91-2). In common practice, substances that are applied to food contact surfaces for antimicrobial purposes must meet this requirement. It has now been discovered that a sanitizer comprising octanoic acid (C8) plus a food additive organic or inorganic acid buffer does indeed meet all of the criteria set forth for a food grade sanitizer. […] Table 1A is a summary of compositions and Table 1B is a summary of their bactericidal activity as determined by the official A.O.A.C. Sanitizing Test. (Germicidal and Detergent Sanitizing Action of Disinfectants, Official Methods of Analysis of the Association of Official Analytical Chemists, paragraph 960.09 and applicable sections, 15th Edition, 1990, EPA guideline 91-2). The octanoic acid is indeed very unique, peaking out at seven log order reductions with both a gram positive (Staphylococcus aureus) and a gram negative (Escherichia coli) bacteria and passes the test requirement for a sanitizing agent. […] Examples IA through IE represent use solutions of the sanitizers.

[2] = system: Escherichia coli; assay: as above; conditions: use solutions, 0.1 wt-% fatty acid + 0.1 wt-% lactic acid (88% w/v) in distilled water, solution pH 2.96-2.97
Text: as §1

[3] = system: Aspergillus niger; assay: Fungicidal activity, A.O.A.C. Disinfection Test Method; conditions: spores of Aspergillus niger, compared with the other test organisms of Table 5B
Text: A disinfectant is an agent that kills all vegetative cells including most recognized pathogenic microorganisms. As such, it must pass a more stringent bactericidal test; the A.O.A.C. Use Dilution Methods, Official Methods of Analysis of the Association of Official Analytical Chemists, paragraph 955.14 and applicable sections, 15th Edition, 1990 (EPA Guideline 91-2). […] Disinfection Test Method. […]

Compound	Results Log Reductions Col. Forming Units S. aureus [1]	Results Log Reductions Col. Forming Units E. coli [2]	concentration for complete kill [3]
CCCCCCCCCC(=O)O [decanoic acid, reference compound]	possesses some activity	possesses some activity	
CCCCCCCC(=O)O [octanoic acid, Octanoic acid]	seven	seven	required a higher concentration for complete kill
